How the values were obtained:
[1] = tested on: phosphorylation of threonine 202 (Thr202) and tyrosine 204 (Tyr204) of ERK; test: ERK phosphorylation inhibitory effect by Cell ELISA in AsPC-1 (Test Example 2); type: cell-based, human; conditions: cultured overnight with compound, 1 μM trametinib taken as 0%
Procedure: Test Example 2: Evaluation of ERK Phosphorylation Inhibitory Effect on Human G12D Mutant KRAS-Positive Pancreatic Cancer Line AsPC-1
The ERK phosphorylation inhibitory effect of test compounds was evaluated by measuring phosphorylation of threonine 202 (Thr202) and tyrosine 204 (Tyr204) of ERK located downstream of the KRAS signal by Cell ELISA.
AsPC-1 cells were seeded on 384-well plates at 36 μL/well to give 2.0×10^4 cells per well. As for the cell culture conditions, RPMI 1640 medium containing 10% fetal bovine serum was used in the presence of 5% CO2 at 37° C.
The next day, the test compounds (10 points having final concentrations in the range of 10 μM to 0.3 nM), trametinib (MEK inhibitor) of a final concentration of 1 μM as positive control and DMSO, which was the solvent for the test compounds, as negative control were diluted 100-fold with a fresh medium and were added at 4 μL per well. The cells were cultured overnight. After culturing, 30% glyoxal solution (40% glyoxal [from Nacalai Tesque] was diluted with PBS) was quickly added at 30 μL per well, and the plate was allowed to stand for 60 minutes at room temperature to thus immobilize the cells. Then, the plate was centrifuged to remove the supernatant (using a centrifugal dehydrator machine, the supernatant was removed by the same method hereinafter), and 0.1% Triton X-100-containing PBS was added at 20 μL per well. After allowing to stand for 10 minutes at room temperature, the supernatant was removed, and the same operation was further repeated. Next, 0.5% SDS-containing PBS was added at 20 μL per well, and after allowing to stand at room temperature for 30 minutes, the supernatant was removed. Subsequently, blocking solution (Intercept Blocking Buffer) was added at 20 μL per well, and the plate was allowed to stand for 1 hour at room temperature. The supernatant was removed, and an ERK (Thr202/Tyr204) phosphorylation antibody (Phospho-p44/42 MAPK (Erk 1/2) (Thr202/Tyr204) (D13.14.4E) XP Rabbit mAb; from Cell Signaling Technology) diluted 2,500-fold with blocking solution was added at 15 μL per well as a primary antibody. The plates were allowed to stand at 4° C. overnight.
The next day, the supernatant was removed. 0.05% Tween-20 (from Thermo Fisher Scientific)-containing PBS was added at 50 μL per well, and the supernatant was removed to thus wash each well. The washing was performed three times in total. After washing, Goat anti-Rabbit IgG H&L (IRDye 800CW) diluted 1,000-fold with blocking solution was added at 15 μL per well as a secondary antibody, and the plates were allowed to stand for 1 hour at room temperature. The supernatant was removed, and each well was washed three times with 0.05% Tween-20-containing PBS in the same manner as after the primary antibody reaction. After removing the supernatant, the plates were dried with air at room temperature for 3 hours or more, and the 800-nm fluorescent signals were measured with Aerius.
With the signaling value at the time of addition of DMSO taken as 100% and with the signaling value at the time of addition of 1 μM trametinib taken as 0%, the 50% inhibitory concentration values (IC50) were calculated by Sigmoid-Emax nonlinear regression analysis.

[2] = biological target: T1, KRAS G12D protein (Homo sapiens, UniProt P01116, G12D); test: KRAS degradation activity by Cell ELISA in AsPC-1 (Test Example 1); type: cell-based; conditions: AsPC-1 cells, cultured overnight with compound, corrected with β-actin, read-out: DC50 (50% degradation concentration of the amounts of KRAS)
T1 construct: host or cells: AsPC-1
Procedure: Test Example 1: Evaluation of KRAS Degradation Activity on Human G12D Mutant KRAS-Positive Pancreatic Cancer Line AsPC-1 (CRL-1682; ATCC)
The KRAS degradation activity of test compounds was evaluated by measuring the expression levels of KRAS G12D protein by Cell ELISA.
AsPC-1 cells were seeded at 20 μL per well on 384-well plates (from Greiner bio-one) to give 2.0×10^4 cells per well. As for the cell culture conditions, RPMI 1640 (from Sigma-Aldrich) medium containing 10% fetal bovine serum (from Cytiva) was used in the presence of 5% CO2 at 37° C.
The next day, the test compounds (10 points having final concentrations in the range of 10 μM to 0.3 nM) and DMSO (from FUJIFILM Wako Pure Chemical Corporation), which was the solvent for the test compounds, as a negative control were diluted 500-fold with a fresh medium and were added at 20 μL per well. The cells were cultured overnight.
The next day, the culture supernatant was removed, and 4% paraformaldehyde phosphate buffer (from FUJIFILM Wako Pure Chemical Corporation) was added at 20 μL per well. The plates were allowed to stand for 30 minutes at room temperature to thus immobilize the cells. Then, the supernatant was removed, and 0.1% Triton X-100 (from Amersham Biosciences)-containing Phosphate buffered saline (PBS; from FUJIFILM Wako Pure Chemical Corporation) was added at 20 μL per well. After allowing to stand for 10 minutes at room temperature, the supernatant was removed. PBS was added at 25 μL per well, and the supernatant was removed to thus wash each well. The washing was performed twice in total. Next, the supernatant was removed, and 0.5% sodium dodecyl sulfate (SDS; from Invitrogen)-containing PBS was added at 20 μL per well. After allowing to stand at room temperature for 10 minutes, the supernatant was removed by a centrifugal operation (using a centrifugal dehydrator machine, the supernatant was removed by the same method hereinafter). PBS was added at 25 μL per well, and the supernatant was removed to thus wash each well. The washing was performed twice in total. The supernatant was removed, and blocking solution (Intercept Blocking Buffer; from Li-COR Biosciences) was added at 20 μL per well. After allowing to stand for 30 minutes at room temperature, the supernatant was removed, and a solution obtained by diluting anti-β-actin antibody (Anti-beta Actin antibody [mAbcam 8226]-Loading Control; from abcam) 1,000-fold with blocking solution and a solution obtained by diluting anti-Ras (G12D Mutant Specific) antibody (Ras (G12D Mutant Specific) (D8H7) Rabbit mAb #14429; from Cell Signaling Technology) and anti-β-actin antibody (from abcam) 1,000-fold with blocking solution were respectively added to positive control wells and the other wells at 20 μL per well as a primary antibody. The plate was allowed to stand overnight at 4° C.
The next day, the supernatant was removed. PBS was added at 25 μL per well, and the supernatant was removed to thus wash each well. The washing was performed twice in total. The supernatant was removed, and a solution obtained by diluting Donkey anti-Mouse IgG H&L (IRDye 680RD) (from Li-COR Biosciences) and Goat anti-Rabbit IgG H&L (IRDye 800CW) (from Li-COR Biosciences) 1,000-fold with blocking solution was added at 20 μL per well as a secondary antibody. After allowing to stand for 1 hour at room temperature, the supernatant was removed. PBS was added at 25 μL per well, and the supernatant was removed to thus wash each well. The washing was performed twice in total. After removing the supernatant, the plate was dried with air at room temperature for 2 hours or more, and the 700 nm and 800 nm fluorescent signals were measured with Aerius (from Li-COR Biosciences). […]

[3] = tested on: human G12D mutant KRAS-positive pancreatic cancer line AsPC-1; test: Non-anchorage-dependent cell growth inhibition, spheroid 3D cell culture (Test Example 3); type: cell-based; conditions: AsPC-1 spheroid 3D culture, 6 days, CellTiter Glo 2.0
Procedure: Test Example 3: Evaluation of Non-Anchorage-Dependent Cell Growth Inhibitory Effect on Human G12D Mutant KRAS-Positive Pancreatic Cancer Line AsPC-1
The non-anchorage-dependent cell growth inhibitory effect of test compounds was evaluated by spheroid 3D cell culture.
AsPC-1 cells were seeded on low-cell-adhesive round bottom 384-well plates (PrimeSurface: from Sumitomo Bakelite) at 36 μL/well to give 5×10^2 cells per well. As for the cell culture conditions, RPMI 1640 medium containing 10% fetal bovine serum was used in the presence of 5% CO2 at 37° C.
The next day, the test compounds (10 or 6 points having final concentrations in the range of 10 μM to 0.3 nM) and DMSO, which was the solvent for the test compounds, as a negative control were diluted 100-fold with a fresh medium and were added at 4 μL per well. After culturing in the presence of 5% CO2 at 37° C. for 6 days, CellTiter Glo 2.0 (from Promega) was added at 20 μL per well. After stirring with a plate mixer (from FINEPCR) at room temperature for 1 hour, the luminescent signals were measured with ARVO X3 (from PerkinElmer).
With the signaling value in treatment with DMSO taken as 100% and with the signaling value in the medium alone without cells taken as 0%, the 50% inhibitory concentration values (IC50) were calculated by Sigmoid-Emax nonlinear regression analysis.

[4] = Homo sapiens, ASPC1, AsPC-1 cells

T1 sequence (P01116 1-188 isoform P01116-2 G12D): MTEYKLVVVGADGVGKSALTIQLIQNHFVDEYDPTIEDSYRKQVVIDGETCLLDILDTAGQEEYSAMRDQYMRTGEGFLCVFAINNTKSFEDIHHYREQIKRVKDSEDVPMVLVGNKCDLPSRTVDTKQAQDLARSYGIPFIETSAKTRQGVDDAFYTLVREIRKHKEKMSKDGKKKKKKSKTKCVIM

| Compound | IC50 [1, 4] | DC50 [2] | IC50 ([3]; Homo sapiens, ASPC1, 144 h) | IC50 ([1]; AsPC-1 cells) | IC50 [3] |
| --- | --- | --- | --- | --- | --- |
| CO[C@@H](C)COc1nc(N2CCNCC2)c2cc(C3CC3)c(-c3c(C)c(F)cc4[nH]ncc34)c(OCc3ccc(-c4cn([C@H](C(=O)N5C[C@H](O)C[C@H]5C(=O)N[C@@H](CO)c5ccc(-c6scnc6C)cc5)C(C)C)nn4)cc3)c2n1 (atropisomer, axis not shown) [Example 54] | 0.005 µM | 0.034 µM | 0.007 µM | – | – |
| Cc1ncsc1-c1ccc([C@H](CO)NC(=O)[C@@H]2C[C@@H](O)CN2C(=O)[C@H](C(C)C)n2cc(-c3ccc(COc4c(-c5c(C)c(F)cc6[nH]ncc56)c(C5CC5)cc5c(N(C)[C@H]6CCNC6)nc(O[C@@H](C)[C@H](C)O)nc45)cc3)nn2)cc1 (atropisomer, axis not shown) [Example 19] | 0.095 µM | 0.091 µM | 0.05 µM | – | – |
| Cc1ncsc1-c1ccc([C@H](CO)NC(=O)[C@@H]2C[C@@H](O)CN2C(=O)[C@H](C(C)C)n2cc(-c3ccc(COc4c(-c5c(C)c(F)cc6[nH]ncc56)c(C5CC5)cc5c(N(C)[C@H]6CCNC6)nc(OC[C@@H](C)F)nc45)cc3)nn2)cc1 (atropisomer, axis not shown) [Example 48] | 0.015 µM | 0.038 µM | 0.016 µM | – | – |
| CO[C@@H](C)COc1nc(N(C)[C@H]2CCNC2)c2cc(C3CC3)c(-c3c(C)c(F)cc4[nH]ncc34)c(OCc3ccc(-c4cn([C@H](C(=O)N5C[C@H](O)C[C@H]5C(=O)N[C@@H](CO)c5ccc(-n6ccnc6C)cc5)C(C)C)nn4)cc3)c2n1 (atropisomer, axis not shown) [Example 21] | 0.047 µM | 0.033 µM | 0.053 µM | – | – |
| Cc1ncsc1-c1ccc([C@H](CO)NC(=O)[C@@H]2C[C@@H](O)CN2C(=O)[C@H](C(C)C)n2cc(-c3ccc(COc4c(-c5c(C)c(F)cc6[nH]ncc56)c(C5CC5)cc5c(N(C)[C@H]6CCNC6)nc(OC[C@H]6CCOC6)nc45)cc3)nn2)cc1 (atropisomer, axis not shown) [Example 17] | 0.007 µM | 0.074 µM | 0.008 µM | – | – |
| Cc1ncsc1-c1ccc([C@H](CO)NC(=O)[C@@H]2C[C@@H](O)CN2C(=O)[C@H](C(C)C)n2cc(-c3ccc(COc4c(-c5c(C)c(F)cc6[nH]ncc56)c(C5CC5)cc5c(N(C)[C@H]6CCNC6)nc(OCCC(F)(F)F)nc45)cc3)nn2)cc1 (atropisomer, axis not shown) [Example 37] | 0.032 µM | 0.058 µM | 0.032 µM | – | – |
| Cc1c(F)cc2[nH]ncc2c1-c1c(C2CC2)cc2c(N(C)[C@H]3CCNC3)nc(OC[C@H]3CCCO3)nc2c1OCc1ccc(-c2cn([C@H](C(=O)N3C[C@H](O)C[C@H]3C(=O)N[C@@H](CO)c3ccc(-n4ccnc4C)cc3)C(C)C)nn2)cc1 (atropisomer, axis not shown) [Example 30] | 0.01 µM | 0.121 µM | 0.012 µM | – | – |

These reach a lower DC50 [2]. Values come first.

| IC50 [1, 4] | DC50 [2] | IC50 ([3]; Homo sapiens, ASPC1, 144 h) | IC50 ([1]; AsPC-1 cells) | IC50 [3] | Compound |
| --- | --- | --- | --- | --- | --- |
| 0.006 µM | 0.025 µM | 0.005 µM | – | – | CO[C@H](CF)COc1nc(N(C)[C@H]2CCNC2)c2cc(C3CC3)c(-c3c(C)c(F)cc4[nH]ncc34)c(OCc3ccc(-c4cn([C@H](C(=O)N5C[C@H](O)C[C@H]5C(=O)N[C@@H](CO)c5ccc(-c6scnc6C)cc5)C(C)C)nn4)cc3)c2n1 (atropisomer, axis not shown) [Example 46] |
| 0.004 µM | 0.011 µM | 0.004 µM | – | – | CO[C@@H](C)COc1nc(O[C@@H]2CCNC2)c2cc(C3CC3)c(-c3c(C)c(F)cc4[nH]ncc34)c(OCc3ccc(-c4cn([C@H](C(=O)N5C[C@H](O)C[C@H]5C(=O)N[C@@H](CO)c5ccc(-c6scnc6C)cc5)C(C)C)nn4)cc3)c2n1 (atropisomer, axis not shown) [Example 52] |
| – | 0.028 µM | – | 0.017 µM | 0.073 µM | CO[C@@H](C)COc1cc(N(C)[C@H]2CCNC2)c2cc(C3CC3)c(-c3c(C)c(F)cc4[nH]ncc34)c(OCc3ccc(-c4cn([C@H](C(=O)N5C[C@H](O)C[C@H]5C(=O)N[C@@H](CO)c5ccc(-c6scnc6C)cc5)C(C)C)nn4)cc3)c2n1 [Example 56] |
| 0.006 µM | 0.02 µM | 0.007 µM | – | – | CCn1nccc1-c1ccc([C@H](CO)NC(=O)[C@@H]2C[C@@H](O)CN2C(=O)[C@H](C(C)C)n2cc(-c3ccc(COc4c(-c5c(C)c(F)cc6[nH]ncc56)c(C5CC5)cc5c(N(C)[C@H]6CCNC6)nc(OC[C@H]6CCCO6)nc45)cc3)nn2)cc1 (atropisomer, axis not shown) [Example 29] |

— US20250206751A1, “HETEROCYCLIC COMPOUND FOR INDUCING DEGRADATION OF G12D MUTANT KRAS PROTEIN” (Astellas Pharma Inc., priority 2022, published 2025)
